The source of these data is US7435754B2, “Laulimalide microtubule stabilizing agents” (Utah State University, priority 2000, dated 2008).

Experiment [1] concerns A-10 cells. Nature of the experiment: Micronuclei formation, DAPI staining. The experiment is classed as cell-based, rat. The following applies: for effect on nuclear structure: A-10 and SK-OV-3 cells, wide range of concentrations; for cells exhibiting micronuclei: A-10 cells, 0.02-2 μM, 18 hours. Here is the method:
FIG. 1 is a graphic representation comparing the effects of Laulimalide and paclitaxel on micronuclei formation, in which A-10 cells were treated for 18 hours with Laulimalide or paclitaxel, the cells were fixed and nuclei were visualized by DAPI staining;
(§1) For the staining of microtubules and intermediate filaments, the cells were fixed with cold methanol for 5 minutes, blocked for 20 minutes with PBS containing 10% calf serum to block nonspecific binding sites, and incubated at 37° C. for 90 min with monoclonal anti-β-tubulin at the dilutions recommended by the manufacturer. Bound primary antibodies were subsequently visualized by a one hour incubation with fluorescein(FITC)-conjugated sheep antimouse IgG (F-3008; Sigma). The coverslips were washed, stained with 0.1 μg/mL DAPI for 10 minutes, mounted on microscope slides and the fluorescence patterns were examined and photographed using a Zeiss Axioplan microscope equipped with epifluorescence optics for fluorescein and DAPI.
The effects of laulimalide on nuclear structure are visible: The normal rounded shape of the nucleus, which is devoid of microtubules, can be detected, whereas in laulimalide-treated cells this distinct microtubule-free area containing the discrete central nucleus was lost and only vesicle-like areas devoid of microtubules remained. […] Similar nuclear changes occurred with isolaulimalide. Paclitaxel also initiated the formation of micronuclei, as has been reported by others.
The difference between the two drugs was statistically significant at all five concentrations tested (P<0.0001).

For experiment [2], the system named is SKVLB-1 cell line (P-glycoprotein-overexpressing sub-line of SK-OV-3). Nature of the experiment: Inhibition of cell proliferation, SRB assay, multidrug-resistant SKVLB-1. The experiment is classed as cell-based, human. The following applies: for IC50: Homo sapiens, read-out: IC50 for inhibition of cell proliferation; for Resistance Factor: drug-resistant SKVLB-1 versus parental SK-OV-3 IC50. How it is done: (§2) The A-10 rat aortic smooth muscle and SK-OV-3 human ovarian carcinoma cell lines were obtained from the American Type Culture Collection (Manassas, Va.) and were cultured in BME containing 10% FBS and 50 μg/mL gentamycin sulfate. A sub-line of SK-OV-3 selected for resistance to vinblastine (SKVLB-1) was provided by Dr. Victor Ling (British Columbia Cancer Center, Vancouver, British Columbia) and was maintained in BME containing 10% FBS and 50 μg/mL gentamycin sulfate. The MDA-MB-435 human mammary adenocarcinoma cell line was obtained from Dr. Mai Higazi (Georgetown University, Washington, D.C.), and was maintained in Richters medium containing 10% FBS and 50 μg/mL gentamycin sulfate. Vinblastine was added to a final concentration of 1 μg/mL to SKVLB-1 cells 24 hours after passage to maintain selection pressure for P-glycoprotein-overexpressing cells.
(§3) The IC50 for inhibition of cell proliferation was determined by measuring cell-associated protein after drug treatment using the sulforhodamine B assay.
(§4) The early literature on laulimalide reported that it was a cytotoxin, but without specifying a mechanism. Experiments were conducted to determine the IC50 values for laulimalide and isolaulimalide in two drug-sensitive cell lines, MDA-MB-435 and SK-OV-3, and in a multidrug-resistant cell line, SKVLB-1. Cells were treated with varying concentrations of the drugs for 48 hours, and cell-associated protein was determined using the SRB assay. The IC50 for each compound was calculated for each cell line.
A general note: The SRB assay estimates cell density from bound dye.

Experiment [3] relates to MDA-MB-435 human mammary adenocarcinoma cell line. Nature of the experiment: Inhibition of cell proliferation, sulforhodamine B (SRB) assay, MDA-MB-435. The following applies: for IC50: Homo sapiens. It counts as cell-based. Here is the method: as §2, §3, §4
Experiment [4] relates to A-10 rat aortic smooth muscle cell line. The experiment is described as follows: Inhibition of cell proliferation, A-10 nontransformed line. It counts as cell-based. Here is the method:
as §2, §3
The IC50 for inhibition of proliferation was also determined in the A-10 cell line, a nontransformed line that was used to show the effects of microtubule-stabilizing agents on cellular structures. […]

Experiment [5] deals with bovine brain tubulin. Nature of the experiment: Tubulin polymerization in vitro. The experiment is classed as biochemical. The following applies: for EC50: Table 2; for effect on tubulin polymerization (in words): absence of polymerization promoters. The source says:
FIG. 3 collectively is a graphic representation comparing the effects of Laulimalide and paclitaxel on tubulin polymerization, in which the polymerization of bovine brain tubulin was monitored, and in which:
One characteristic of the microtubule-stabilizing agents paclitaxel, discodermolide, epothilones A and B, and eleutherobin is the ability of these agents to initiate the polymerization of tubulin in the absence of polymerization promoters, such as glycerol. Studies were undertaken to determine the effects of laulimalide on tubulin polymerization.
Samples of the tubulin polymer formed were examined by electron microscopy to determine whether the increase in turbidity measured during the polymerization experiments was due to the formation of microtubule-like polymers or the formation of other structures.

Experiment [6] concerns caspase 3 / PARP. Nature of the experiment: Caspase 3 activation and PARP proteolysis, immunoblot of cell lysates. It counts as cell-based. The following applies: cells treated 42 and 48 hours. An excerpt:
During apoptosis, specific cysteine proteases called the caspases are activated. Activation of the caspase cascade leads to the proteolytic degradation of specific cellular proteins. The activation of caspase 3 and the proteolysis of the DNA repair enzyme PARP, a downstream substrate of caspase 3, were examined in cell lysates from laulimalide-treated cells. Activation of caspase 3 leads to the loss of the 32 kDa proenzyme and the formation of the activation products p17 and p12. […] The loss of the p32 proenzyme is seen at 48 hours. The specific proteolysis of PARP by caspase 3 leads to the formation of two products, an 89 kDa COOH-terminal fragment and a 24 kDa N-terminal fragment. The proteolysis of PARP and the appearance of the 89 kDa degradation product coincided with the activation of caspase 3.
(In general: In western blotting, separated proteins are transferred to a membrane and probed.)

For experiment [7], the system named is A-10 cells. Nature of the experiment: Immunofluorescence of cellular microtubules and mitotic spindles. It counts as cell-based, rat. The following applies: for sensitivity of stabilized cellular microtubules to vinblastine / morphological effects on cellular microtubules: A-10 cells; for effect on mitotic spindles: A-10 cells and SK-OV-3 cells; for morphological effects on cellular microtubules: 18 hours, laulimalide 2 μM, isolaulimalide 2-20 μM, paclitaxel 1-20 μM. Here is the method:
A-10 cells were grown to 70-85% confluence on glass coverslips in BME supplemented with 10% FBS. Drug compounds in PBS were added to the indicated final concentrations and cells were incubated for an additional […].
as §1
A-10 cells were treated with laulimalide, isolaulimalide, or paclitaxel for 18 hours and the morphological effects on microtubules examined by indirect immunofluorescence techniques.

The test system of experiment [8] is MDA-MB-435 cells. The experiment is described as follows: Cell cycle distribution by flow cytometry. The experiment is classed as cell-based, human. The following applies: MDA-MB-435, 20 nM. Here is the method: FIG. 2 collectively is a graphic representation comparing the effects of Laulimalide on cell cycle distribution, wherein log phase growth cultures of MDA-MB-435 cells were treated, the cells were fixed, stained, and analyzed on a Coulter EPICS XL-MCL flow cytometer and plotted as events versus propidium iodide fluorescene intensity, and in which:
A common characteristic of anti-microtubule agents is their ability to initiate mitotic arrest. […] This is consistent with the effects of other antimicrotubule agents, where disruption of microtubule dynamics prevents normal mitotic progression and leads to mitotic arrest. […] The mitotic cells were rounded, and the spindles formed a circular pattern with spindle microtubules radiating outward from a microtubule-free core in the center of the cell. In the mitotic cells, the nuclear membranes were not apparent, and the chromatin was condensed and aligned in a circular pattern.
The ultimate mechanism of action of many cytotoxic cancer chemotherapeutic agents is the initiation of pathways of gene and protein expression leading to apoptosis. Antimicrotubule drugs including paclitaxel, vinblastine, and cryptophycin 1 initiate apoptosis both in vitro and in vivo. […] The loss of cellular DNA is detected by the appearance of the subdiploid peak when apoptotic cells are analyzed by flow cytometry. […]
A general note: Flow cytometry measures light scatter and fluorescence of single cells or particles in a stream.

Experiment [9] deals with SK-OV-3 human ovarian carcinoma cell line. The experiment is described as follows: Inhibition of cell proliferation, SRB assay, SK-OV-3. The experiment is classed as cell-based. The following applies: read-out: IC50 for inhibition of cell proliferation. How it is done:
as §2, §3, §4

Setting [10] is: MDA-MB-435, 48 h, read-out: IC50 for inhibition of cell proliferation.

Structures are written as SMILES. Like-named read-outs stand apart in the source and are kept apart here.

As to `C=C1C[C@H](C)C[C@@H]2CC=C[C@@H](C/C=C\C(=O)OC([C@@H](O)/C=C/[C@@H]3CC(C)=CCO3)C[C@@H]3OC3[C@@H](O)C1)O2` (stereo partly drawn) [Laulimalide, laulimalide], in [1], the “effect on nuclear structure” value is given as “formation of multiple micronuclei” and the cells exhibiting micronuclei result is listed as “approximately 60%”. Moreover, in experiment [2] (SKVLB1, 48 h), the IC50 worked out at 1210 nM. In addition, the “Resistance Factor” value in [2] turned out to be 105. For the same molecule, the IC50 in experiment [3] (setting [10]) worked out at 5.74 ± 0.58 nM. For the same molecule, the IC50 in experiment [3] (MDA-MB-435, read-out: IC50 values, inhibition of cell proliferation (summary of Table 1)) lay within 5 to 12 nM. Besides, the IC50 in [4] (A10, read-out: IC50 for inhibition of proliferation) turned out to be 51000 nM. Besides, in experiment [5], the “polymerization of tubulin at 0° C.” value is “Neither paclitaxel nor laulimalide promoted the polymerization”, a half-maximal effect (EC50) was put at 4320 ± 400 nM and the “effect on tubulin polymerization (in words)” value is on record as “stimulated tubulin polymerization”. The “kinetics of tubulin formation relative to 20 μM paclitaxel” value in [5] (20 μM) was “twice as fast”. Also, the “additional tubulin polymer formed relative to paclitaxel” value in experiment [5] (20 μM of each drug) is recorded as “approximately 30%”. The “stability of tubulin polymers formed” value in experiment [5] (cold and CaCl2) was “insensitive to cold and CaCl2-induced depolymerization”. In addition, in experiment [6], the “caspase 3 activation and PARP cleavage” value was “Caspase 3 was activated and PARP proteolytically cleaved”. In experiment [7], the “sensitivity of stabilized cellular microtubules to vinblastine” value (shortened to “sensitivity”) is listed as “resistant to vinblastine-induced depolymerization”, the “effect on mitotic spindles” value is on record as “Abnormal mitotic spindles” and the “morphological effects on cellular microtubules” value (shortened to “morphological effects”) is reported as “bundles of short tufts of microtubules”. Also, the “subdiploid peak (apoptosis)” value in experiment [8] (18 hours) is reported as “doubling of the subdiploid peak”. The “effect on cell cycle” value in experiment [8] (within nine hours) is given as “cell cycle arrest in G2-M”. Besides, the IC50 in [9] (SK-OV-3, 48 h) worked out at 11.5 ± 0.53 nM.
As to `C=C1C[C@H](C)C[C@@H]2CC=C[C@@H](C/C=C\C(=O)OC3CC(OC3/C=C/[C@@H]3CC(C)=CCO3)[C@@H](O)[C@@H](O)C1)O2` (stereo partly drawn) [Isolaulimalide, isolaulimalide], the “effect on nuclear structure” value in [1] is given as “formation of multiple micronuclei”. Also, in experiment [2] (SKVLB1, 48 h), the IC50 came out at 2650 nM. For the same molecule, the “Resistance Factor” value in [2] is reported as 1.03. Moreover, in [3] (setting [10]), the IC50 was found to be 1970 nM. For the same molecule, the “IC50 values, inhibition of cell proliferation (in words)” value in experiment [3] (cell lines of Table 1) is on record as “low μM range”. The “effect on tubulin polymerization (in words)” value in [5] is “stimulated tubulin polymerization”. Also, in experiment [7], the “sensitivity” value is reported as “resistant to vinblastine-induced depolymerization”; the “effect on mitotic spindles” value was “Abnormal mitotic spindles”; the “morphological effects” value is recorded as “increase in the density of cellular microtubules, but no microtubule bundles were present”. Further, the IC50 in experiment [9] (SK-OV-3, 48 h) came to 2570 nM.
For `CC(=O)O[C@H]1C(=O)[C@@]2(C)[C@H]([C@H](OC(=O)c3ccccc3)[C@]3(O)C[C@H](OC(=O)[C@H](O)[C@@H](NC(=O)c4ccccc4)c4ccccc4)C(C)=C1C3(C)C)[C@]1(OC(C)=O)CO[C@@H]1C[C@@H]2O` [Paclitaxel, reference compound], the cells exhibiting micronuclei result in experiment [1] is reported as “approximately 40%”. Besides, the IC50 in [2] (SKVLB1, SKVLB (SKVLB-1), 48 hours, SRB, mean ± SD) was > 100000 nM. Moreover, the “inhibition of the SKVLB-1 cell line” value in experiment [2] (concentrations up to 100 μM) is reported as ≤ 70%. In [2], the “Resistance Factor” value is given as >58,480. In addition, the IC50 in [3] (MDA-MB-435, 48 hours, SRB, mean ± SD, read-out: IC50 for inhibition of cell proliferation) is 1.02 ± 0.25 nM. Further, in [4] (A10, A-10 cell line, read-out: IC50 for inhibition of proliferation), the IC50 turned out to be 40000 nM. Also, in experiment [5], the “polymerization of tubulin at 0° C.” value is reported as “Neither paclitaxel nor laulimalide promoted the polymerization” and the EC50 (as a rule, the concentration that produces a half-maximal response) was 1440 ± 60 nM. Besides, in experiment [7], the “sensitivity” value is “resistant to vinblastine-induced depolymerization”; the “effect on mitotic spindles” value is “Abnormal mitotic spindles”; the “morphological effects” value is “formation of a highly organized array of microtubules, some of which formed thick microtubule bundles”. The IC50 in experiment [9] (SK-OV-3, 48 hours, SRB, mean ± SD) came to 1.71 ± 1.07 nM.
